In publication PMC11855478, “Bicyclic N,S-Acetals Containing Fused Cysteine-Amide System as New Heterocyclic Class Targeting Human Farnesyltransferase (FTase-h)” (International Journal of Molecular Sciences, 2025):

Tests used:
[1] = target: human farnesyltransferase (FTase) (Homo sapiens, UniProt P49354+P49356); test: FTase inhibitory assay (fluorescence, Dansyl-GCVLS); type: biochemical; details: for % FTI: inhibition of human FTase at 100 μM of tested compound, mean of two experiments
Protocol: With 40 new products in hand, the determination of their inhibitory activity on human farnesyl-transferase (FTase) in vitro was first undertaken. Dimethyl sulfoxide (DMSO) was used as the negative control, and Chaetomellic acid A was the positive reference in all assays. At the outset, and in order to select only significant results, products with an inhibitory power greater than 60% at an initial screening concentration of 100 µM were retained for the determination of their IC50 and, therefore, for further discussion. Moreover, given the number of products tested, they are grouped into three subfamilies on the basis of the degree of the sulphur atom oxidation (series of sulfides, series of sulfoxides, and series of sulfones), and the results obtained are grouped in Table 1, Table 2 and Table 3.
3.3. FTase Inhibitory Assay
Assays were realized in 96-well plates, prepared with a Biomek NKMC and a Biomek 3000 from Beckman Coulter, and read on a Wallac Victor fluorimeter from PerkinElmer. Per well, 20 µL of farnesyl pyrophosphate (10 μM) was added to 180 µL of a solution containing 2 µL of varied concentrations of potential inhibitors (dissolved in DMSO) and 178 μL of a solution composed of 10 μL of partially purified recombinant human FTase (15 µg mL^−1) and 1.0 µL of Dansyl-GCVLS peptide (in the following buffer: 5.6 mM DTT, 5.6 mM MgCl2, 12 μM ZnCl2 and 0.2% (w/v) octyl-β-D-glucopyranoside, 52 mM Tris/HCl, pH 7.5). Fluorescence was recorded for 15 min (0.7 s per well, 20 repeats) at 30 °C with an excitation filter at 340 nm and an emission filter of 486 nm. Each measurement was reproduced twice, in duplicate. The kinetic experiments were realized under the same conditions, either with FPP as varied substrate with a constant concentration of Dns-GCVLS of 2.5 μM or with Dns-GCVLS as varied substrate with a constant concentration of FPP of 10 μM. Non-linear regressions were performed using the Excel software.

CCRF-CEM (Leukemia) = test: NCI one dose, CCRF-CEM; type: cell-based, human; details: 1.00E-5 Molar one dose
Protocol: (§1) 3.4. Cell Proliferation Assay
(§2) Selected compounds were tested on a panel of 60 human cancer cell lines at the National Cancer Institute (NCI), Germantown, MD, USA. The cytotoxicity studies were conducted using a 48 h exposure protocol using the sulfo-rhodamine B assay.

K-562 leukaemia cells = test: NCI one dose, K-562; type: cell-based, human; details: K-562, 1.00E-5 Molar one dose
Protocol: as §1, §2

MOLT-4 (Leukemia) = test: NCI one dose, MOLT-4; type: cell-based, human; details: MOLT-4, 1.00E-5 Molar one dose
Protocol: as §1, §2

SR (Leukemia) = test: NCI one dose, SR; type: cell-based, human; details: 1.00E-5 Molar one dose
Protocol: as §1, §2

[2] = tested on: EKVX (Non-Small Cell Lung Cancer); test: NCI one dose, EKVX; type: cell-based, human; details: 1.00E-5 Molar one dose
Protocol: as §1, §2

[3] = tested on: HOP-62 (Non-Small Cell Lung Cancer); test: NCI one dose, HOP-62; type: cell-based, human; details: HOP-62, 1.00E-5 Molar one dose
Protocol: as §1, §2

[4] = tested on: HOP-92 (Non-Small Cell Lung Cancer); test: NCI one dose, HOP-92; type: cell-based, human; details: HOP-92, 1.00E-5 Molar one dose
Protocol: as §1, §2

[5] = tested on: NCI-H23 (Non-Small Cell Lung Cancer); test: NCI one dose, NCI-H23; type: cell-based, human; details: NCI-H23, 1.00E-5 Molar one dose
Protocol: as §1, §2

[6] = tested on: NCI-H522 non-small cell lung cancer cells; test: NCI cell proliferation, NCI-H522; type: cell-based, human; details: for inhibition at 10 µM: read-out: % Cancer cell growth Inhibition (NCI-H522); for Growth Percent: NCI-H522, 1.00E-5 Molar one dose
Protocol: as §1, §2

HCT-116 (Colon Cancer) = test: NCI one dose, HCT-116; type: cell-based, human; details: HCT-116, 1.00E-5 Molar one dose
Protocol: as §1, §2

KM12 (Colon Cancer) = test: NCI one dose, KM12; type: cell-based, human; details: KM12, 1.00E-5 Molar one dose
Protocol: as §1, §2

SF-268 (CNS Cancer) = test: NCI one dose, SF-268; type: cell-based, human; details: SF-268, 1.00E-5 Molar one dose
Protocol: as §1, §2

SNB-19 (CNS Cancer) = test: NCI one dose, SNB-19; type: cell-based, human; details: SNB-19, 1.00E-5 Molar one dose
Protocol: as §1, §2

U251 (CNS Cancer) = test: NCI one dose, U251; type: cell-based, human; details: U251, 1.00E-5 Molar one dose
Protocol: as §1, §2

LOX IMVI (Melanoma) = test: NCI one dose, LOX IMVI; type: cell-based, human; details: 1.00E-5 Molar one dose
Protocol: as §1, §2

MALME-3M (Melanoma) = test: NCI one dose, MALME-3M; type: cell-based, human; details: 1.00E-5 Molar one dose
Protocol: as §1, §2

MDA-MB-435 (Melanoma) = test: NCI one dose, MDA-MB-435; type: cell-based, human; details: MDA-MB-435, 1.00E-5 Molar one dose
Protocol: as §1, §2

SK-MEL-2 (Melanoma) = test: NCI one dose, SK-MEL-2; type: cell-based, human; details: SK-MEL-2, 1.00E-5 Molar one dose
Protocol: as §1, §2

UACC-62 (Melanoma) = test: NCI one dose, UACC-62; type: cell-based, human; details: UACC-62, 1.00E-5 Molar one dose
Protocol: as §1, §2

ACHN (Renal Cancer) = test: NCI one dose, ACHN; type: cell-based, human; details: 1.00E-5 Molar one dose
Protocol: as §1, §2

CAKI-1 (Renal Cancer) = test: NCI one dose, CAKI-1; type: cell-based, human; details: CAKI-1, 1.00E-5 Molar one dose
Protocol: as §1, §2

RXF 393 (Renal Cancer) = test: NCI one dose, RXF 393; type: cell-based, human; details: RXF 393, 1.00E-5 Molar one dose
Protocol: as §1, §2

UO-31 renal cancer cells = test: NCI one dose, UO-31; type: cell-based, human; details: UO-31, 1.00E-5 Molar one dose
Protocol: as §1, §2

PC-3 (Prostate Cancer) = test: NCI one dose, PC-3; type: cell-based, human; details: PC-3, 1.00E-5 Molar one dose
Protocol: as §1, §2

DU-145 (Prostate Cancer) = test: NCI one dose, DU-145; type: cell-based, human; details: DU-145, 1.00E-5 Molar one dose
Protocol: as §1, §2

BT-549 (Breast Cancer) = test: NCI one dose, BT-549; type: cell-based, human; details: BT-549, 1.00E-5 Molar one dose
Protocol: as §1, §2

Structure (SMILES) | % FTI [1] | Growth Percent (CCRF-CEM (Leukemia)) | Growth Percent (K-562 leukaemia cells) | Growth Percent (MOLT-4 (Leukemia)) | Growth Percent (SR (Leukemia)) | Growth Percent [2] | Growth Percent [3] | Growth Percent [4] | Growth Percent [5] | inhibition at 10 µM ([6]; Homo sapiens, NCI-H522) | Growth Percent [6] | Growth Percent (HCT-116 (Colon Cancer)) | Growth Percent (KM12 (Colon Cancer)) | Growth Percent (SF-268 (CNS Cancer)) | Growth Percent (SNB-19 (CNS Cancer)) | Growth Percent (U251 (CNS Cancer)) | Growth Percent (LOX IMVI (Melanoma)) | Growth Percent (MALME-3M (Melanoma)) | Growth Percent (MDA-MB-435 (Melanoma)) | Growth Percent (SK-MEL-2 (Melanoma)) | further results
COc1ccc(CNC(=O)[C@@H]2CS[C@@]3(C)c4ccccc4C(=O)N23)cc1 [4bF] | 67% | 93.94% | 77.39% | 76.38% | 84.33% | 106.83% | 95.58% | 80.27% | 96.08% | 28% | 72.32% | 93.74% | 96.53% | 98.37% | 99.83% | 93.45% | 102.28% | 111.34% | 102.01% | 93.38% | IC50 ([1]; human FTase in vitro): 9.21 µM; Growth Percent (UACC-62 (Melanoma)): 93.24%; Growth Percent (ACHN (Renal Cancer)): 101.13%; Growth Percent (CAKI-1 (Renal Cancer)): 85.69%; Growth Percent (RXF 393 (Renal Cancer)): 95.28%; Growth Percent (UO-31 renal cancer cells): 89.30%; Growth Percent (PC-3 (Prostate Cancer)): 93.51%; Growth Percent (DU-145 (Prostate Cancer)): 105.22%; Growth Percent (BT-549 (Breast Cancer)): 106.11%
COc1cc(CNC(=O)[C@@H]2CS[C@@]3(C)c4ccccc4C(=O)N23)cc(OC)c1OC [4bJ] | 74% | 90.73% | 71.92% | 81.24% | 77.35% | 108.30% | 90.09% | 88.36% | 96.92% | 31% | 68.76% | 98.10% | 106.18% | 101.09% | 93.01% | 82.69% | 105.04% | 108.52% | 104.68% | 89.27% | IC50 ([1]; human FTase): 4.35 µM; IC50 ([1]; human FTase in vitro): 4.35 µM; Growth Percent (UACC-62 (Melanoma)): 92.46%; Growth Percent (ACHN (Renal Cancer)): 97.41%; Growth Percent (CAKI-1 (Renal Cancer)): 89.81%; Growth Percent (RXF 393 (Renal Cancer)): 98.72%; Growth Percent (UO-31 renal cancer cells): 90.29%; Growth Percent (PC-3 (Prostate Cancer)): 89.97%; Growth Percent (DU-145 (Prostate Cancer)): 108.72%; Growth Percent (BT-549 (Breast Cancer)): 107.75%
COc1ccccc1CNC(=O)[C@@H]1CS[C@@]2(C)c3ccccc3C(=O)N12 [4bG] | 30% | 98.16% | 85.09% | 96.78% | 82.72% | 102.57% | 98.30% | 98.11% | 103.28% | 30% | 70.03% | 99.72% | 103.74% | 105.82% | 102.87% | 94.53% | 98.70% | 100.10% | 103.94% | 98.59% | Growth Percent (UACC-62 (Melanoma)): 95.39%; Growth Percent (ACHN (Renal Cancer)): 109.61%; Growth Percent (CAKI-1 (Renal Cancer)): 90.92%; Growth Percent (RXF 393 (Renal Cancer)): 105.28%; Growth Percent (UO-31 renal cancer cells): 94.50%; Growth Percent (PC-3 (Prostate Cancer)): 98.65%; Growth Percent (DU-145 (Prostate Cancer)): 107.06%; Growth Percent (BT-549 (Breast Cancer)): 109.63%
COc1ccc(CNC(=O)[C@@H]2CS[C@H]3c4ccccc4C(=O)N23)cc1OC [4aI] | 62% | 94.08% | 84.27% | 99.18% | 74.16% | 114.59% | 98.51% | 93.36% | 92.75% | 36% | 63.65% | 98.84% | 107.09% | 104.77% | 104.62% | 93.84% | 99.42% | 102.18% | 107.42% | 80.08% | GI50 ([6]; Homo sapiens, NCI-H522): 20.8 µM; Growth Percent (UACC-62 (Melanoma)): 98.01%; Growth Percent (ACHN (Renal Cancer)): 105.56%; Growth Percent (CAKI-1 (Renal Cancer)): 95.39%; Growth Percent (RXF 393 (Renal Cancer)): 110.33%; Growth Percent (UO-31 renal cancer cells): 94.41%; Growth Percent (PC-3 (Prostate Cancer)): 88.12%; Growth Percent (DU-145 (Prostate Cancer)): 107.46%; Growth Percent (BT-549 (Breast Cancer)): 108.27%
C[C@@]12SC[C@@H](C(=O)NCc3ccccc3Br)N1C(=O)c1ccccc12 [4bB] | 39% | 88.50% | 80.28% | 82.96% | 80.60% | 106.14% | 99.61% | 88.23% | 91.89% | 22% | 78.46% | 104.70% | 100.14% | 96.91% | 100.80% | 91.25% | 97.04% | 97.54% | 96.92% | 85.75% | Growth Percent (UACC-62 (Melanoma)): 82.12%; Growth Percent (ACHN (Renal Cancer)): 106.88%; Growth Percent (CAKI-1 (Renal Cancer)): 79.18%; Growth Percent (RXF 393 (Renal Cancer)): 96.88%; Growth Percent (UO-31 renal cancer cells): 86.71%; Growth Percent (PC-3 (Prostate Cancer)): 78.76%; Growth Percent (DU-145 (Prostate Cancer)): 101.37%; Growth Percent (BT-549 (Breast Cancer)): 107.51%
